Assay results as given in patent US20100298141A1, “SUBSTITUTED PYRIDINE N-OXIDE HERBICIDES” (E. I. DU PONT DE NEMOURS AND COMPANY, priority 2007, published 2010).

Tests used:
[1] = tested on: redroot pigweed; test: Test A pre-/postemergence greenhouse test; assay type: in vivo, Amaranthus retroflexus; settings: for Plant response rating, Pigweed: 0 to 100 scale where 0 is no effect and 100 is complete control; for Pigweed plant response rating: 0 to 100 scale
In short: (§1)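 Each test compound, dissolved in a non-phytotoxic solvent mixture with surfactant, was sprayed directly onto seeded soil (loam/sand blend) and, at the same moment, onto seedlings carrying one to two leaves. Around ten greenhouse days later, plants were rated visually for injury relative to untreated controls.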

[2] = tested on: wild oat; test: Test C pre-/postemergence test; assay type: in vivo, Avena fatua; settings: for Plant response rating, Oat, Wild: 31 g ai/ha, scale 0 to 100 (0 no effect, 100 complete control)
In short: (§2)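 Test chemicals were formulated with surfactant in a non-phytotoxic solvent and sprayed both on freshly planted seeds (preemergence) and on 1- to 4-leaf plants of 2–18 cm (postemergence). Flooded-paddy pots received compound directly into 3 cm of standing water, maintained for the test.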

[3] = tested on: yellow nutsedge; test: Test C pre-/postemergence test; assay type: in vivo, Cyperus esculentus; settings: for Plant response rating, Nutsedge, Yellow: 31 g ai/ha, scale 0 to 100 (0 no effect, 100 complete control)
In short: as §2

[4] = tested on: rice; test: Test C flooded paddy test; assay type: in vivo, Oryza sativa; settings: Flood
In short: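 Greenhouse pots flooded to 3 cm above soil at time of treatment received compound via the water, which stayed at that level.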

[5] = tested on: johnsongrass; test: Test C pre-/postemergence test; assay type: in vivo, Sorghum halepense; settings: for Plant response rating, Johnsongrass: 31 g ai/ha, scale 0 to 100 (0 no effect, 100 complete control)
In short: as §2

[6] = tested on: eastern black nightshade; test: Test C pre-/postemergence test; assay type: in vivo, Solanum ptycanthum; settings: for Plant response rating, Nightshade: 31 g ai/ha, scale 0 to 100 (0 no effect, 100 complete control)
In short: as §2

[7] = tested on: corn; test: Test A pre-/postemergence greenhouse test; assay type: in vivo, Zea mays; settings: for Plant response rating, Corn: 0 to 100 scale where 0 is no effect and 100 is complete control; for Corn plant response rating: 0 to 100 scale
In short: as §1

[8] = tested on: bermudagrass; test: Test C pre-/postemergence test; assay type: in vivo, Cynodon dactylon; settings: for Plant response rating, Bermudagrass: 31 g ai/ha
In short: as §2

[9] = tested on: common (oilseed) sunflower; test: Test C pre-/postemergence test; assay type: in vivo, Helianthus annuus; settings: for Plant response rating, Sunflower: 31 g ai/ha, scale 0 to 100 (0 no effect, 100 complete control)
In short: as §2

[10] = tested on: Italian ryegrass; test: Test C pre-/postemergence test; assay type: in vivo, Lolium multiflorum; settings: for Plant response rating, Ryegrass, Italian: 31 g ai/ha, scale 0 to 100 (0 no effect, 100 complete control)
In short: as §2

[11] = tested on: morningglory; test: Test A pre-/postemergence greenhouse test; assay type: in vivo, Ipomoea spp.; settings: for Plant response rating, Morningglory: 0 to 100 scale where 0 is no effect and 100 is complete control; for Morningglory plant response rating: 0 to 100 scale
In short: as §1

[12] = tested on: wheat; test: Test C pre-/postemergence test; assay type: in vivo, Triticum aestivum; settings: for Plant response rating, Wheat: 31 g ai/ha, scale 0 to 100 (0 no effect, 100 complete control)
In short: as §2

[13] = tested on: morningglory; test: Test C pre-/postemergence test; assay type: in vivo, Ipomoea coccinea; settings: for Plant response rating, Morningglory: 31 g ai/ha, scale 0 to 100 (0 no effect, 100 complete control)
In short: as §2

[14] = tested on: kochia; test: Test C pre-/postemergence test; assay type: in vivo, Kochia scoparia
In short: as §2

[15] = tested on: corn; test: Test C pre-/postemergence test; assay type: in vivo, Zea mays; settings: for Plant response rating, Corn: 31 g ai/ha, scale 0 to 100 (0 no effect, 100 complete control)
In short: as §2

[16] = tested on: cocklebur; test: Test C pre-/postemergence test; assay type: in vivo, Xanthium strumarium; settings: for Plant response rating, Cocklebur: 31 g ai/ha, scale 0 to 100 (0 no effect, 100 complete control)
In short: as §2

[17] = tested on: giant foxtail; test: Test C pre-/postemergence test; assay type: in vivo, Setaria faberii; settings: for Plant response rating, Foxtail, Giant: 31 g ai/ha, scale 0 to 100 (0 no effect, 100 complete control)
In short: as §2

[18] = Postemergence, 500 g ai/ha, 0 is no effect, 100 is complete control
[19] = Preemergence, 125 g ai/ha, 0 no effect, 100 complete control
[20] = Preemergence, 500 g ai/ha, 0 no effect, 100 complete control
[21] = 62 g ai/ha, Preemergence, scale 0 to 100
[22] = 125 g ai/ha, preemergence, scale 0 (no effect) to 100 (complete control)
[23] = preemergence, 250 g ai/ha, scale 0 (no effect) to 100 (complete control)
[24] = 62 g ai/ha, scale 0 to 100 (0 no effect, 100 complete control)
[25] = 250 g ai/ha, scale 0 to 100, 0 no effect, 100 complete control, 13 to 15 days
[26] = 62 g ai/ha, Preemergence, scale 0 to 100 (0 no effect, 100 complete control)
[27] = Preemergence, scale 0 to 100 (0 no effect, 100 complete control)

## C#CCOc1c(CS(=O)(=O)c2cccc[n+]2[O-])c(C(F)(F)F)nn1C [Compound 103]
[1]; Postemergence, 125 g ai/ha
  Plant response rating, Pigweed: 30
[1]; [18]
  Pigweed plant response rating: 60
[1]; [19]
  Pigweed plant response rating: 60
[1]; [20]
  Pigweed plant response rating: 100
[2]; [21]
  Oat, Wild plant response rating: 60
[2]; [22]
  Oat, Wild plant response rating: 100
[2]; Preemergence
  Plant response rating, Oat, Wild: 40
[2]; [23]
  Oat, Wild plant response rating: 100
[3]; [21]
  Nutsedge, Yellow plant response rating: 70
[3]; [22]
  Nutsedge, Yellow plant response rating: 85
[3]; Preemergence
  Plant response rating, Nutsedge, Yellow: 0
[3]; [23]
  Nutsedge, Yellow plant response rating: 85
[4]; [24]
  Plant response rating, Rice: 0
[4]; [25]
  Plant response rating, Rice: 0
[5]; [21]
  Johnsongrass plant response rating: 100
[5]; [22]
  Johnsongrass plant response rating: 100
[5]; Preemergence
  Plant response rating, Johnsongrass: 30
[5]; [23]
  Johnsongrass plant response rating: 100
[6]; [21]
  Nightshade plant response rating: 90
[6]; [22]
  Nightshade plant response rating: 90
[6]; Preemergence
  Plant response rating, Nightshade: 90
[6]; [23]
  Nightshade plant response rating: 98
[7]; Postemergence, 125 g ai/ha
  Plant response rating, Corn: 0
[7]; [18]
  Corn plant response rating: 60
[7]; [19]
  Corn plant response rating: 0
[7]; [20]
  Corn plant response rating: 60
[8]; [26]
  Bermudagrass plant response rating: 100
[8]; [22]
  Bermudagrass plant response rating: 100
[8]; [27]
  Plant response rating, Bermudagrass: 40
[8]; [23]
  Bermudagrass plant response rating: 100
[9]; [21]
  Sunflower plant response rating: 35
[9]; [22]
  Sunflower plant response rating: 50
[9]; Preemergence
  Plant response rating, Sunflower: 35
[9]; [23]
  Sunflower plant response rating: 90
[10]; [21]
  Ryegrass, Italian plant response rating: 50
[10]; [22]
  Ryegrass, Italian plant response rating: 55
[10]; Preemergence
  Plant response rating, Ryegrass, Italian: 0
[10]; [23]
  Ryegrass, Italian plant response rating: 60
[11]; Postemergence, 125 g ai/ha
  Plant response rating, Morningglory: 20
[11]; [18]
  Morningglory plant response rating: 70
[11]; [19]
  Morningglory plant response rating: 0
[11]; [20]
  Morningglory plant response rating: 70
[12]; [21]
  Wheat plant response rating: 0
[12]; [22]
  Wheat plant response rating: 25
[12]; Preemergence
  Plant response rating, Wheat: 0
[12]; [23]
  Wheat plant response rating: 98
[13]; [21]
  Morningglory plant response rating: 55
[13]; [22]
  Morningglory plant response rating: 80
[13]; Preemergence
  Plant response rating, Morningglory: 0
[13]; [23]
  Morningglory plant response rating: 98
[14]; [21]
  Kochia plant response rating: 0
[14]; [22]
  Kochia plant response rating: 100
[14]; [23]
  Kochia plant response rating: 100
[15]; [21]
  Corn plant response rating: 0
[15]; [22]
  Corn plant response rating: 65
[15]; Preemergence
  Plant response rating, Corn: 0
[15]; [23]
  Corn plant response rating: 95
[16]; [21]
  Cocklebur plant response rating: 0
[16]; [22]
  Cocklebur plant response rating: 0
[16]; Preemergence
  Plant response rating, Cocklebur: 0
[16]; [23]
  Cocklebur plant response rating: 30
[17]; [21]
  Foxtail, Giant plant response rating: 95
[17]; [22]
  Foxtail, Giant plant response rating: 100
[17]; Preemergence
  Plant response rating, Foxtail, Giant: 55
[17]; [23]
  Foxtail, Giant plant response rating: 100

## CC(C)c1cc[n+]([O-])c([S+]([O-])Cc2c(C(F)(F)F)nn(C)c2OC(F)F)c1 (stereo not shown) [Compound 109]
[1]; Postemergence, 125 g ai/ha
  Plant response rating, Pigweed: 60
[1]; [18]
  Pigweed plant response rating: 90
[1]; [19]
  Pigweed plant response rating: 100
[1]; [20]
  Pigweed plant response rating: 100
[2]; [21]
  Oat, Wild plant response rating: 70
[2]; [22]
  Oat, Wild plant response rating: 90
[2]; Preemergence
  Plant response rating, Oat, Wild: 50
[2]; [23]
  Oat, Wild plant response rating: 98
[3]; [21]
  Nutsedge, Yellow plant response rating: 80
[3]; [22]
  Nutsedge, Yellow plant response rating: 98
[3]; Preemergence
  Plant response rating, Nutsedge, Yellow: 80
[3]; [23]
  Nutsedge, Yellow plant response rating: 100
[4]; 31 g ai/ha, scale 0 to 100 (0 no effect, 100 complete control)
  Plant response rating, Rice: 0
[4]; [24]
  Plant response rating, Rice: 0
[4]; 125 g ai/ha, scale 0 to 100, 0 no effect, 100 complete control, 13 to 15 days
  Plant response rating, Rice: 0
[4]; [25]
  Plant response rating, Rice: 20
[5]; [21]
  Johnsongrass plant response rating: 100
[5]; [22]
  Johnsongrass plant response rating: 100
[5]; Preemergence
  Plant response rating, Johnsongrass: 85
[5]; [23]
  Johnsongrass plant response rating: 100
[6]; [21]
  Nightshade plant response rating: 80
[6]; [22]
  Nightshade plant response rating: 95
[6]; Preemergence
  Plant response rating, Nightshade: 20
[6]; [23]
  Nightshade plant response rating: 100
[7]; Postemergence, 125 g ai/ha
  Plant response rating, Corn: 60
[7]; [18]
  Corn plant response rating: 80
[7]; [19]
  Corn plant response rating: 50
[7]; [20]
  Corn plant response rating: 90
[8]; [26]
  Bermudagrass plant response rating: 100
[8]; [22]
  Bermudagrass plant response rating: 100
[8]; [27]
  Plant response rating, Bermudagrass: 95
[8]; [23]
  Bermudagrass plant response rating: 100
[9]; [21]
  Sunflower plant response rating: 50
[9]; [22]
  Sunflower plant response rating: 55
[9]; Preemergence
  Plant response rating, Sunflower: 50
[9]; [23]
  Sunflower plant response rating: 75
[10]; [21]
  Ryegrass, Italian plant response rating: 0
[10]; [22]
  Ryegrass, Italian plant response rating: 0
[10]; Preemergence
  Plant response rating, Ryegrass, Italian: 0
[10]; [23]
  Ryegrass, Italian plant response rating: 0
[11]; Postemergence, 125 g ai/ha
  Plant response rating, Morningglory: 60
[11]; [18]
  Morningglory plant response rating: 90
[11]; [19]
  Morningglory plant response rating: 60
[11]; [20]
  Morningglory plant response rating: 100
[12]; [21]
  Wheat plant response rating: 50
[12]; [22]
  Wheat plant response rating: 65
[12]; Preemergence
  Plant response rating, Wheat: 10
[12]; [23]
  Wheat plant response rating: 100
[13]; [21]
  Morningglory plant response rating: 100
[13]; [22]
  Morningglory plant response rating: 100
[13]; Preemergence
  Plant response rating, Morningglory: 80
[13]; [23]
  Morningglory plant response rating: 100
[14]; [21]
  Kochia plant response rating: 90
[14]; [22]
  Kochia plant response rating: 100
[14]; Preemergence, 31 g ai/ha, scale 0 to 100 (0 no effect, 100 complete control)
  Plant response rating, Kochia: 80
[14]; [23]
  Kochia plant response rating: 100
[15]; [21]
  Corn plant response rating: 70
[15]; [22]
  Corn plant response rating: 95
[15]; Preemergence
  Plant response rating, Corn: 50
[15]; [23]
  Corn plant response rating: 98
[16]; [21]
  Cocklebur plant response rating: 0
[16]; [22]
  Cocklebur plant response rating: 0
[16]; Preemergence
  Plant response rating, Cocklebur: 0
[16]; [23]
  Cocklebur plant response rating: 60
[17]; [21]
  Foxtail, Giant plant response rating: 100
[17]; [22]
  Foxtail, Giant plant response rating: 100
[17]; Preemergence
  Plant response rating, Foxtail, Giant: 100
[17]; [23]
  Foxtail, Giant plant response rating: 100
